Results taken from patent publication US20050070509A1, “Antimycotic agent” (priority 2001, published 2005).

Legend:
Format in all cases: cell-based
Candida glabrata = assay: agar incorporation test, growth inhibition of yeasts; details: Sabouraud agar, 30° C., patient isolates
Method: (§1) The activity of the compound according to the invention as agent for inhibiting the growth of various types of yeasts was studied in an agar incorporation test. The nutrient medium used was Sabouraud agar. Several samples of each of the yeast types below, which were isolated directly from diseased patients, were tested: • a) Candida tropicalis • b) Candida albicans • c) Candida glabrata • d) Candida parapsilosis.
(§2) The cultures were supplemented with bis(N-cyclohexyldiazeniumdioxy)copper in such an amount that an end concentration of 25 or 50 ppm was obtained. The cultures were subsequently incubated at 30° C., and the growth of the isolates was assessed after an incubation period of 2 to 5 days.

Candida albicans = assay: as above; details: Sabouraud agar, 30° C., patient isolates
Method: as §1, §2

Candida tropicalis = assay: as above; details: Sabouraud agar, 30° C., patient isolates
Method: as §1, §2

Candida parapsilosis = assay: as above; details: Sabouraud agar, 30° C., patient isolates
Method: as §1, §2

Epidermophyton floccosum = assay: agar incorporation test, growth inhibition of dermatophytes
Method: as §1, §2
(§3) The activity of the compound according to the invention for inhibiting the growth of the dermatophyte cultures below was studied in an agar incorporation test as described in Example 1. The active ingredient concentration in the samples amounted to 2.5, 5, 10, 15, 20, 25, 30, 35, 40, 45 and 50 ppm. The isolates were studied after an incubation period of 7, 14 and 21 days, and their growth was determined.

[1] = test system: Scopulariopsis brevicaulis; assay: as above
Method: as §1, §2, §3

[2] = test system: Trichophyton mentagrophytes; assay: as above
Method: as §1, §2, §3

Microsporum canis = assay: as above
Method: as §1, §2, §3

Trichlorophyton rubrum = assay: as above
Method: as §1, §2, §3

[3] = active ingredient 25 ppm, incubation 2 and 5 days
[4] = active ingredient 50 ppm, incubation 2 to 5 days

SMILES: O=NN([O-])C1CCCCC1.O=NN([O-])C1CCCCC1.[Cu+2] [bis(N-cyclohexyldiazeniumdioxy)copper]
- growth of the isolates (Candida glabrata; [3]): still growing
- growth of the isolates (Candida glabrata; [4]): no growth
- growth of the isolates (Candida albicans; [3]): still growing
- growth of the isolates (Candida albicans; [4]): no growth
- growth of the isolates (Candida tropicalis; [3]): still growing
- growth of the isolates (Candida tropicalis; [4]): no growth
- growth of the isolates (Candida parapsilosis; [3]): still growing
- growth of the isolates (Candida parapsilosis; [4]): no growth
- Effective active ingredient concentration (Epidermophyton floccosum; incubation period 7 days): 15 ppm
- Effective active ingredient concentration (Epidermophyton floccosum; incubation period 14 days): 20 ppm
- Effective active ingredient concentration (Epidermophyton floccosum; incubation period 21 days): 20 ppm
- Effective active ingredient concentration ([1]; incubation period 7 days): 25 ppm
- Effective active ingredient concentration ([1]; incubation period 14 days): 35 ppm
- Effective active ingredient concentration ([1]; incubation period 21 days): 40 ppm
- Effective active ingredient concentration ([2]; incubation period 7 days): 30 ppm
- Effective active ingredient concentration ([2]; incubation period 14 days): 30 ppm
- Effective active ingredient concentration ([2]; incubation period 21 days): 30 ppm
- Effective active ingredient concentration (Microsporum canis; incubation period 7 days): ≦10 ppm
- Effective active ingredient concentration (Microsporum canis; incubation period 14 days): 15 ppm
- Effective active ingredient concentration (Microsporum canis; incubation period 21 days): 15 ppm
- Effective active ingredient concentration (Trichlorophyton rubrum; incubation period 7 days): 15 ppm
- Effective active ingredient concentration (Trichlorophyton rubrum; incubation period 14 days): 15 ppm
- Effective active ingredient concentration (Trichlorophyton rubrum; incubation period 21 days): 15 ppm
